{
  "source": "PubChem BioAssay AID1259407",
  "about": "(Chemical Carcinogenesis Research Information System (CCRIS), 2018)",
  "test_system": "CCRIS mutagenicity, Ames/micronucleus/aberration tests",
  "experiment": "CCRIS mutagenicity studies",
  "key": {"[1]": {"details": "Test System: AMES SALMONELLA TYPHIMURIUM, Strain/Indicator: TA98, Metabolic Activation: NONE, Method: STANDARD PLATE"}, "[2]": {"details": "Test System: AMES SALMONELLA TYPHIMURIUM, Strain/Indicator: TA100, Metabolic Activation: NONE, Method: STANDARD PLATE"}, "[3]": {"details": "Test System: AMES SALMONELLA TYPHIMURIUM, Strain/Indicator: TA1535, Metabolic Activation: NONE, Method: STANDARD PLATE"}, "[4]": {"details": "Test System: AMES SALMONELLA TYPHIMURIUM, Strain/Indicator: TA98, Metabolic Activation: NONE, Method: PREINCUBATION"}, "[5]": {"details": "Test System: AMES SALMONELLA TYPHIMURIUM, Strain/Indicator: TA100, Metabolic Activation: NONE, Method: PREINCUBATION"}},
  "note": "Active and inactive are the calls of the source. How the calls were made is not given here.",
  "data": [
    {"molecule": "C=C[Si](C)(Cl)Cl", "values": [
      {"measurement": "mutagenic call", "setting": "Test System: AMES SALMONELLA TYPHIMURIUM, Strain/Indicator: TA98, Metabolic Activation: HAMSTER, LIVER, S-9, AROCLOR 1254 (10%), Method: STANDARD PLATE", "result": "inactive; negative"},
      {"measurement": "mutagenic call", "setting": "[1]", "result": "inactive; negative"},
      {"measurement": "mutagenic call", "setting": "Test System: AMES SALMONELLA TYPHIMURIUM, Strain/Indicator: TA98, Metabolic Activation: RAT, LIVER, S-9, AROCLOR 1254 (10%), Method: STANDARD PLATE", "result": "inactive; negative"},
      {"measurement": "mutagenic call", "setting": "Test System: AMES SALMONELLA TYPHIMURIUM, Strain/Indicator: TA100, Metabolic Activation: HAMSTER, LIVER, S-9, AROCLOR 1254 (10%), Method: STANDARD PLATE", "result": "inactive; negative"},
      {"measurement": "mutagenic call", "setting": "[2]", "result": "inactive; negative"},
      {"measurement": "mutagenic call", "setting": "Test System: AMES SALMONELLA TYPHIMURIUM, Strain/Indicator: TA100, Metabolic Activation: RAT, LIVER, S-9, AROCLOR 1254 (10%), Method: STANDARD PLATE", "result": "inactive; negative"},
      {"measurement": "mutagenic call", "setting": "Test System: AMES SALMONELLA TYPHIMURIUM, Strain/Indicator: TA1535, Metabolic Activation: HAMSTER, LIVER, S-9, AROCLOR 1254 (10%), Method: STANDARD PLATE", "result": "active; positive"},
      {"measurement": "mutagenic call", "setting": "[3]", "result": "inactive; negative"},
      {"measurement": "mutagenic call", "setting": "Test System: AMES SALMONELLA TYPHIMURIUM, Strain/Indicator: TA1535, Metabolic Activation: RAT, LIVER, S-9, AROCLOR 1254 (10%), Method: STANDARD PLATE", "result": "inactive; negative"},
      {"measurement": "mutagenic call", "setting": "Test System: AMES SALMONELLA TYPHIMURIUM, Strain/Indicator: TA1537, Metabolic Activation: HAMSTER, LIVER, S-9, AROCLOR 1254 (10%), Method: STANDARD PLATE", "result": "inactive; negative"},
      {"measurement": "mutagenic call", "setting": "Test System: AMES SALMONELLA TYPHIMURIUM, Strain/Indicator: TA1537, Metabolic Activation: NONE, Method: STANDARD PLATE", "result": "inactive; negative"},
      {"measurement": "mutagenic call", "setting": "Test System: AMES SALMONELLA TYPHIMURIUM, Strain/Indicator: TA1537, Metabolic Activation: RAT, LIVER, S-9, AROCLOR 1254 (10%), Method: STANDARD PLATE", "result": "inactive; negative"},
      {"measurement": "mutagenic call", "setting": "Test System: AMES SALMONELLA TYPHIMURIUM, Strain/Indicator: TA1538, Metabolic Activation: HAMSTER, LIVER, S-9, AROCLOR 1254 (10%), Method: STANDARD PLATE", "result": "inactive; negative"},
      {"measurement": "mutagenic call", "setting": "Test System: AMES SALMONELLA TYPHIMURIUM, Strain/Indicator: TA1538, Metabolic Activation: NONE, Method: STANDARD PLATE", "result": "inactive; negative"},
      {"measurement": "mutagenic call", "setting": "Test System: AMES SALMONELLA TYPHIMURIUM, Strain/Indicator: TA1538, Metabolic Activation: RAT, LIVER, S-9, AROCLOR 1254 (10%), Method: STANDARD PLATE", "result": "inactive; negative"},
      {"measurement": "mutagenic call", "setting": "Test System: MOUSE LYMPHOMA, Strain/Indicator: L5178Y (TK+/TK-), Metabolic Activation: NONE, Method: SUSPENSION/PLATE", "result": "inactive; negative. reevaluation of results: negative"},
      {"measurement": "mutagenic call", "setting": "Test System: MOUSE LYMPHOMA, Strain/Indicator: L5178Y (TK+/TK-), Metabolic Activation: RAT, LIVER, S-9, AROCLOR 1254, Method: SUSPENSION/PLATE", "result": "inactive; negative. reevaluation of results: inconclusive"}
    ]},
    {"molecule": "CC(O)CN(CC(C)O)CC(C)O", "note": "(centres undefined)", "values": [
      {"measurement": "mutagenic call", "setting": "Test System: AMES SALMONELLA TYPHIMURIUM, Strain/Indicator: TA98, Metabolic Activation: HAMSTER, LIVER, S-9, AROCLOR 1254 (10%), Method: PREINCUBATION", "result": "inactive; negative"},
      {"measurement": "mutagenic call", "setting": "[4]", "result": "inactive; negative"},
      {"measurement": "mutagenic call", "setting": "Test System: AMES SALMONELLA TYPHIMURIUM, Strain/Indicator: TA98, Metabolic Activation: RAT, LIVER, S-9, AROCLOR 1254 (10%), Method: PREINCUBATION", "result": "inactive; negative"},
      {"measurement": "mutagenic call", "setting": "Test System: AMES SALMONELLA TYPHIMURIUM, Strain/Indicator: TA100, Metabolic Activation: HAMSTER, LIVER, S-9, AROCLOR 1254 (10%), Method: PREINCUBATION", "result": "inactive; negative"},
      {"measurement": "mutagenic call", "setting": "[5]", "result": "inactive; negative"},
      {"measurement": "mutagenic call", "setting": "Test System: AMES SALMONELLA TYPHIMURIUM, Strain/Indicator: TA100, Metabolic Activation: RAT, LIVER, S-9, AROCLOR 1254 (10%), Method: PREINCUBATION", "result": "inactive; negative"},
      {"measurement": "mutagenic call", "setting": "Test System: AMES SALMONELLA TYPHIMURIUM, Strain/Indicator: TA1535, Metabolic Activation: HAMSTER, LIVER, S-9, AROCLOR 1254 (10%), Method: PREINCUBATION", "result": "inactive; negative"},
      {"measurement": "mutagenic call", "setting": "Test System: AMES SALMONELLA TYPHIMURIUM, Strain/Indicator: TA1535, Metabolic Activation: NONE, Method: PREINCUBATION", "result": "inactive; negative"},
      {"measurement": "mutagenic call", "setting": "Test System: AMES SALMONELLA TYPHIMURIUM, Strain/Indicator: TA1535, Metabolic Activation: RAT, LIVER, S-9, AROCLOR 1254 (10%), Method: PREINCUBATION", "result": "inactive; negative"},
      {"measurement": "mutagenic call", "setting": "Test System: AMES SALMONELLA TYPHIMURIUM, Strain/Indicator: TA1537, Metabolic Activation: HAMSTER, LIVER, S-9, AROCLOR 1254 (10%), Method: PREINCUBATION", "result": "inactive; negative"},
      {"measurement": "mutagenic call", "setting": "Test System: AMES SALMONELLA TYPHIMURIUM, Strain/Indicator: TA1537, Metabolic Activation: NONE, Method: PREINCUBATION", "result": "inactive; negative"},
      {"measurement": "mutagenic call", "setting": "Test System: AMES SALMONELLA TYPHIMURIUM, Strain/Indicator: TA1537, Metabolic Activation: RAT, LIVER, S-9, AROCLOR 1254 (10%), Method: PREINCUBATION", "result": "inactive; negative"}
    ]},
    {"molecule": "CN(Cc1ccc([N+](=O)[O-])cc1)N=O", "values": [
      {"measurement": "mutagenic call", "setting": "Test System: AMES SALMONELLA TYPHIMURIUM, Strain/Indicator: TA1535, Metabolic Activation: HAMSTER, LIVER, S-9, AROCLOR 1254, Method: STANDARD PLATE", "result": "active; positive"},
      {"measurement": "mutagenic call", "setting": "[3]", "result": "inactive; negative"}
    ]},
    {"molecule": "CN(C)c1ccc(-c2ccc(N(C)C)cc2)cc1", "values": [
      {"measurement": "mutagenic call", "setting": "[4]", "result": "inactive; negative"},
      {"measurement": "mutagenic call", "setting": "[1]", "result": "inactive; negative"},
      {"measurement": "mutagenic call", "setting": "Test System: AMES SALMONELLA TYPHIMURIUM, Strain/Indicator: TA98, Metabolic Activation: RAT LIVER S-9, AROCLOR 1254, Method: PREINCUBATION", "result": "active; positive"},
      {"measurement": "mutagenic call", "setting": "Test System: AMES SALMONELLA TYPHIMURIUM, Strain/Indicator: TA98, Metabolic Activation: RAT, LIVER, S-9, AROCLOR 1254, Method: STANDARD PLATE", "result": "active; positive"},
      {"measurement": "mutagenic call", "setting": "[5]", "result": "inactive; negative"},
      {"measurement": "mutagenic call", "setting": "[2]", "result": "inactive; negative"},
      {"measurement": "mutagenic call", "setting": "Test System: AMES SALMONELLA TYPHIMURIUM, Strain/Indicator: TA100, Metabolic Activation: RAT LIVER S-9, AROCLOR 1254, Method: PREINCUBATION", "result": "inactive; negative"},
      {"measurement": "mutagenic call", "setting": "Test System: AMES SALMONELLA TYPHIMURIUM, Strain/Indicator: TA100, Metabolic Activation: RAT, LIVER, S-9, AROCLOR 1254, Method: STANDARD PLATE", "result": "inactive; negative"}
    ]}
  ]
}
